Target: T1, Recombinant human KIF18A (1-467His-tagged) protein (Homo sapiens, UniProt Q8NI77)
T1 construct: Recombinant human KIF18A (1-467His-tagged) protein; His; made in house
Assay: KIF18A enzyme assay (microtubule-stimulated ATPase activity, ADP-Glo)
Assay type: biochemical
Conditions: 30 nM KIF18A, 75 μM ATP, 30 μg/mL pig microtubules; read-out: Inhibitory activity against KIF18A IC50
Procedure, shortened: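 Buffer 15 mM Tris pH 7.5, 10 mM MgCl2, 0.01% Pluronic F-68, 1 μM paclitaxel, 30 μg/mL pig microtubules; reactions at room temperature. IC50 from inhibition relative to DMSO.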

T1 sequence (Q8NI77 1-467): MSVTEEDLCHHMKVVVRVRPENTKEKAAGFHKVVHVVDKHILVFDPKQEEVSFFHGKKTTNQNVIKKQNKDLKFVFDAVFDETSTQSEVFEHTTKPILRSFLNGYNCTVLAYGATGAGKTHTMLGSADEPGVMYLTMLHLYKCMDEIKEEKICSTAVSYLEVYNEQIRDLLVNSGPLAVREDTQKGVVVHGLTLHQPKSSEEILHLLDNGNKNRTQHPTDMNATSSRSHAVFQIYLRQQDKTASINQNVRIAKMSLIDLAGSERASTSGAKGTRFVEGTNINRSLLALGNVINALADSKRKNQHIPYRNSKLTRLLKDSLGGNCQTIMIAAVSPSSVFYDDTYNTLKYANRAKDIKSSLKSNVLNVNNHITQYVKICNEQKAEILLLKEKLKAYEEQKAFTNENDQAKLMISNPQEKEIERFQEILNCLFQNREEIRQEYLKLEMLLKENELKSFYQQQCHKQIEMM
T1 sequence (P02550 whole entry partner): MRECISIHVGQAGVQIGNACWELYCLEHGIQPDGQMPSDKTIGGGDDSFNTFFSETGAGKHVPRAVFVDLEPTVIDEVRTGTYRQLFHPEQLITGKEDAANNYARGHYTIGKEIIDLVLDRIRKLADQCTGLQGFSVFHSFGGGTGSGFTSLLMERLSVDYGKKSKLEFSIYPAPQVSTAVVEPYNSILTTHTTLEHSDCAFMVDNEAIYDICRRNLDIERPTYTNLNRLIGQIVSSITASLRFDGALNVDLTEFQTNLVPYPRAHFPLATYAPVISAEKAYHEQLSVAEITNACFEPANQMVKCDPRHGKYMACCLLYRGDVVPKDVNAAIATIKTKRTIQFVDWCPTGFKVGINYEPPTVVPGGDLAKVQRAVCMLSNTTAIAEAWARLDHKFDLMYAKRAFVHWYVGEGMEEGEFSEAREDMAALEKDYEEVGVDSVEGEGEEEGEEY
T1 sequence (P02554 whole entry partner): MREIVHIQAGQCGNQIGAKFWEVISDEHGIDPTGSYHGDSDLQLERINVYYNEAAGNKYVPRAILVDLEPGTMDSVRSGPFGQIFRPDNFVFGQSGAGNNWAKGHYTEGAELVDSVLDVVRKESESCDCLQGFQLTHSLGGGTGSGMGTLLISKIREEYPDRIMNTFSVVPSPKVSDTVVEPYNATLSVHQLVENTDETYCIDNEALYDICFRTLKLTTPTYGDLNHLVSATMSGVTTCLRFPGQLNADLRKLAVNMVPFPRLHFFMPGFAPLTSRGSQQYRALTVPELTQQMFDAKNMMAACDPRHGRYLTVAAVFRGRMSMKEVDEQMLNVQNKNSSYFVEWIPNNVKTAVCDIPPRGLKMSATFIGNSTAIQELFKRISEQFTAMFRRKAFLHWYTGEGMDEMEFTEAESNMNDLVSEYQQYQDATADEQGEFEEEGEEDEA

Compound	IC50
C[C@@H]1CN(c2cc(C(=O)Nc3ccc(S(=O)(=O)NCCO)cc3N3CCC4(CC3)CC4)ccc2OCF)CCO1 [Compound 530]	100 to 500 nM
C[C@H]1CN(c2cc(C(=O)Nc3ccc(S(=O)(=O)NCCO)cc3N3CCC4(CC3)CC4)ccc2OCF)CCO1 [Compound 531]	100 to 500 nM
O=C(Nc1ccc(S(=O)(=O)NCCO)cc1N1CCC2(CC1)CC2)c1ccc(OCF)c(N2CC(F)(F)C2)c1 [Compound 532]	100 to 500 nM
O=C(Nc1ccc(S(=O)(=O)NCCO)cc1N1CCC2(CC1)CC2)c1ccc(OCF)c(OCCC(F)(F)F)c1 [Compound 533]	100 to 500 nM
O=C(Nc1ccc(S(=O)(=O)NCCO)cc1N1CCC2(CC1)CC2)c1ccc(OCF)c(N2CCC3(CC3)C2)c1 [Compound 534]	100 to 500 nM
O=C(Nc1ccc(S(=O)(=O)NCCO)cc1N1CCC2(CC1)CC2)c1ccc(OCF)c(OC2CCC2)c1 [Compound 535]	100 to 500 nM
CC1(F)CCN(c2cc(C(=O)Nc3ccc(S(=O)(=O)NCCO)cc3N3CCC4(CC3)CC4)ccc2OCF)C1 (stereo not shown) [Compound 536]	100 to 500 nM
O=C(Nc1ccc(S(=O)(=O)NCCO)cc1N1CCC2(CC1)CC2)c1ccc(OCF)c(N2CC3CC3C2)c1 (stereo not shown) [Compound 538]	100 to 500 nM
CC(C)(CO)Nc1cc(C(=O)Nc2ccc(S(=O)(=O)NCCO)cc2N2CCC3(CC2)CC3)ccc1OCF [Compound 539]	100 to 500 nM
O=C(Nc1ccc(S(=O)(=O)NCCO)cc1N1CCC2(CC1)CC2)c1ccc(OCF)c(N2CCOCC2)c1 [Compound 540]	100 to 500 nM
C[C@@H](CO)NS(=O)(=O)c1ccc(NC(=O)c2ccc(OCF)c(N3CCC(F)(F)CC3)c2)c(N2CCC3(CC2)CC3)c1 [Compound 541]	100 to 500 nM
C[C@H](CO)NS(=O)(=O)c1ccc(NC(=O)c2ccc(OCF)c(N3CCC(F)(F)CC3)c2)c(N2CCC3(CC2)CC3)c1 [Compound 542]	100 to 500 nM
C[C@@H]1CN(c2cc(C(=O)Nc3ccc(S(=O)(=O)N[C@@H](C)CO)cc3N3CCC4(CC3)CC4)ccc2OCF)CCO1 [Compound 543]	100 to 500 nM
O=C(Nc1ccc(NS(=O)(=O)CCO)cc1N1CCC2(CC1)CC2)c1ccc(OCF)c(N2CCC(F)(F)CC2)n1 [Compound 545]	≤ 100 nM
C[C@H]1CN(c2nc(C(=O)Nc3ccc(NS(=O)(=O)CCO)cc3N3CCC4(CC3)CC4)ccc2OCF)CCO1 [Compound 547]	≤ 100 nM
O=C(Nc1ccc(NS(=O)(=O)CCO)cc1N1CCC2(CC1)CC2)c1ccc(OCF)c(OCCC(F)(F)F)n1 [Compound 549]	≤ 100 nM
O=C(Nc1ccc(NS(=O)(=O)CCO)cc1N1CCC2(CC1)CC2)c1ccc(OCF)c(OC2CCC2)n1 [Compound 551]	≤ 100 nM
CC1(F)CCN(c2nc(C(=O)Nc3ccc(NS(=O)(=O)CCO)cc3N3CCC4(CC3)CC4)ccc2OCF)C1 (stereo not shown) [Compound 552]	≤ 100 nM
C[C@@H](CO)S(=O)(=O)Nc1ccc(NC(=O)c2ccc(OCF)c(N3CCC(F)(F)CC3)n2)c(N2CCC3(CC2)CC3)c1 [Compound 557]	≤ 100 nM

Compound	IC50
C[C@@H]1CN(c2nc(C(=O)Nc3ccc(S(=O)(=O)NCCO)cc3N3CCC4(CC3)CC4)ccc2OCF)CCO1 [Compound 562]	100 to 500 nM
C[C@H]1CN(c2nc(C(=O)Nc3ccc(S(=O)(=O)NCCO)cc3N3CCC4(CC3)CC4)ccc2OCF)CCO1 [Compound 563]	100 to 500 nM
O=C(Nc1ccc(S(=O)(=O)NCCO)cc1N1CCC2(CC1)CC2)c1ccc(OCF)c(N2CC(F)(F)C2)n1 [Compound 564]	100 to 500 nM
O=C(Nc1ccc(S(=O)(=O)NCCO)cc1N1CCC2(CC1)CC2)c1ccc(OCF)c(N2CCC3(CC3)C2)n1 [Compound 566]	100 to 500 nM
O=C(Nc1ccc(S(=O)(=O)NCCO)cc1N1CCC2(CC1)CC2)c1ccc(OCF)c(OC2CCC2)n1 [Compound 567]	100 to 500 nM
O=C(Nc1ccc(S(=O)(=O)NCCO)cc1N1CCC2(CC1)CC2)c1ccc(OCF)c(N2CCC(F)CC2)n1 [Compound 569]	100 to 500 nM
C[C@@H](CO)NS(=O)(=O)c1ccc(NC(=O)c2ccc(OCF)c(N3CCC(F)(F)CC3)n2)c(N2CCC3(CC2)CC3)c1 [Compound 573]	100 to 500 nM
C[C@H](CO)NS(=O)(=O)c1ccc(NC(=O)c2ccc(OCF)c(N3CCC(F)(F)CC3)n2)c(N2CCC3(CC2)CC3)c1 [Compound 574]	100 to 500 nM
C[C@H](CO)NS(=O)(=O)c1ccc(NC(=O)c2ccc(OCF)c(N3CCO[C@H](C)C3)n2)c(N2CCC3(CC2)CC3)c1 [Compound 576]	100 to 500 nM
CSc1ccc(NC(=O)c2ccc(NS(=O)(=O)CCO)cc2N2CCC3(CC2)CC3)cc1N1CCC(F)(F)CC1 [Compound 577]	≤ 100 nM
CSc1ccc(NC(=O)c2ccc(NS(=O)(=O)CCO)cc2N2CCC3(CC2)CC3)cc1N1CCO[C@H](C)C1 [Compound 578]	≤ 100 nM
CSc1ccc(NC(=O)c2ccc(NS(=O)(=O)CCO)cc2N2CCC3(CC2)CC3)cc1N1CCO[C@@H](C)C1 [Compound 579]	≤ 100 nM
CSc1ccc(NC(=O)c2ccc(NS(=O)(=O)CCO)cc2N2CCC3(CC2)CC3)cc1OC1CCC1 [Compound 583]	≤ 100 nM
CSc1ccc(NC(=O)c2ccc(NS(=O)(=O)CCO)cc2N2CCC3(CC2)CC3)cc1N1CC2CC2C1 (stereo not shown) [Compound 586]	≤ 100 nM
CSc1ccc(NC(=O)c2ccc(NS(=O)(=O)[C@@H](C)CO)cc2N2CCC3(CC2)CC3)cc1N1CCC(F)(F)CC1 [Compound 589]	≤ 100 nM
CSc1ccc(NC(=O)c2ccc(NS(=O)(=O)[C@H](C)CO)cc2N2CCC3(CC2)CC3)cc1N1CCC(F)(F)CC1 [Compound 590]	≤ 100 nM
CSc1ccc(NC(=O)c2ccc(NS(=O)(=O)[C@@H](C)CO)cc2N2CCC3(CC2)CC3)cc1N1CCO[C@H](C)C1 [Compound 591]	≤ 100 nM
CSc1ccc(NC(=O)c2ccc(NS(=O)(=O)[C@H](C)CO)cc2N2CCC3(CC2)CC3)cc1N1CCO[C@H](C)C1 [Compound 592]	≤ 100 nM

The next lines start with the values.

IC50	Compound
100 to 500 nM	O=C(Nc1ccc(S(=O)(=O)NCCO)cc1N1CCC2(CC1)CC2)c1ccc(OCF)c(N2CCC(F)(F)CC2)c1 [Compound 529]
100 to 500 nM	O=C(Nc1ccc(S(=O)(=O)NCCO)cc1N1CCC2(CC1)CC2)c1ccc(OCF)c(N2CCC(F)CC2)c1 [Compound 537]
100 to 500 nM	C[C@H](CO)NS(=O)(=O)c1ccc(NC(=O)c2ccc(OCF)c(N3CCO[C@H](C)C3)c2)c(N2CCC3(CC2)CC3)c1 [Compound 544]
≤ 100 nM	C[C@@H]1CN(c2nc(C(=O)Nc3ccc(NS(=O)(=O)CCO)cc3N3CCC4(CC3)CC4)ccc2OCF)CCO1 [Compound 546]
≤ 100 nM	O=C(Nc1ccc(NS(=O)(=O)CCO)cc1N1CCC2(CC1)CC2)c1ccc(OCF)c(N2CC(F)(F)C2)n1 [Compound 548]
≤ 100 nM	O=C(Nc1ccc(NS(=O)(=O)CCO)cc1N1CCC2(CC1)CC2)c1ccc(OCF)c(N2CCC3(CC3)C2)n1 [Compound 550]
≤ 100 nM	O=C(Nc1ccc(NS(=O)(=O)CCO)cc1N1CCC2(CC1)CC2)c1ccc(OCF)c(N2CCC(F)CC2)n1 [Compound 553]
≤ 100 nM	O=C(Nc1ccc(NS(=O)(=O)CCO)cc1N1CCC2(CC1)CC2)c1ccc(OCF)c(N2CC3CC3C2)n1 (stereo not shown) [Compound 554]
≤ 100 nM	CC(C)(CO)Nc1nc(C(=O)Nc2ccc(NS(=O)(=O)CCO)cc2N2CCC3(CC2)CC3)ccc1OCF [Compound 555]
≤ 100 nM	O=C(Nc1ccc(NS(=O)(=O)CCO)cc1N1CCC2(CC1)CC2)c1ccc(OCF)c(N2CCOCC2)n1 [Compound 556]
≤ 100 nM	C[C@H](CO)S(=O)(=O)Nc1ccc(NC(=O)c2ccc(OCF)c(N3CCC(F)(F)CC3)n2)c(N2CCC3(CC2)CC3)c1 [Compound 558]
≤ 100 nM	C[C@@H]1CN(c2nc(C(=O)Nc3ccc(NS(=O)(=O)[C@@H](C)CO)cc3N3CCC4(CC3)CC4)ccc2OCF)CCO1 [Compound 559]
≤ 100 nM	C[C@@H]1CN(c2nc(C(=O)Nc3ccc(NS(=O)(=O)[C@H](C)CO)cc3N3CCC4(CC3)CC4)ccc2OCF)CCO1 [Compound 560]
100 to 500 nM	O=C(Nc1ccc(S(=O)(=O)NCCO)cc1N1CCC2(CC1)CC2)c1ccc(OCF)c(N2CCC(F)(F)CC2)n1 [Compound 561]
100 to 500 nM	O=C(Nc1ccc(S(=O)(=O)NCCO)cc1N1CCC2(CC1)CC2)c1ccc(OCF)c(OCCC(F)(F)F)n1 [Compound 565]
100 to 500 nM	CC1(F)CCN(c2nc(C(=O)Nc3ccc(S(=O)(=O)NCCO)cc3N3CCC4(CC3)CC4)ccc2OCF)C1 (stereo not shown) [Compound 568]
100 to 500 nM	O=C(Nc1ccc(S(=O)(=O)NCCO)cc1N1CCC2(CC1)CC2)c1ccc(OCF)c(N2CC3CC3C2)n1 (stereo not shown) [Compound 570]
100 to 500 nM	CC(C)(CO)Nc1nc(C(=O)Nc2ccc(S(=O)(=O)NCCO)cc2N2CCC3(CC2)CC3)ccc1OCF [Compound 571]
100 to 500 nM	O=C(Nc1ccc(S(=O)(=O)NCCO)cc1N1CCC2(CC1)CC2)c1ccc(OCF)c(N2CCOCC2)n1 [Compound 572]
100 to 500 nM	C[C@@H]1CN(c2nc(C(=O)Nc3ccc(S(=O)(=O)N[C@@H](C)CO)cc3N3CCC4(CC3)CC4)ccc2OCF)CCO1 [Compound 575]
≤ 100 nM	CSc1ccc(NC(=O)c2ccc(NS(=O)(=O)CCO)cc2N2CCC3(CC2)CC3)cc1N1CC(F)(F)C1 [Compound 580]
≤ 100 nM	CSc1ccc(NC(=O)c2ccc(NS(=O)(=O)CCO)cc2N2CCC3(CC2)CC3)cc1OCCC(F)(F)F [Compound 581]
≤ 100 nM	CSc1ccc(NC(=O)c2ccc(NS(=O)(=O)CCO)cc2N2CCC3(CC2)CC3)cc1N1CCC2(CC2)C1 [Compound 582]
≤ 100 nM	CSc1ccc(NC(=O)c2ccc(NS(=O)(=O)CCO)cc2N2CCC3(CC2)CC3)cc1N1CCC(C)(F)C1 (stereo not shown) [Compound 584]
≤ 100 nM	CSc1ccc(NC(=O)c2ccc(NS(=O)(=O)CCO)cc2N2CCC3(CC2)CC3)cc1N1CCC(F)CC1 [Compound 585]
≤ 100 nM	CSc1ccc(NC(=O)c2ccc(NS(=O)(=O)CCO)cc2N2CCC3(CC2)CC3)cc1NC(C)(C)CO [Compound 587]
≤ 100 nM	CSc1ccc(NC(=O)c2ccc(NS(=O)(=O)CCO)cc2N2CCC3(CC2)CC3)cc1N1CCOCC1 [Compound 588]
